Results published in patent publication US20260034253A1, “NECTIN-4 MINIPROTEIN CONJUGATES” (Aktis Oncology, Inc., priority 2022, published 2026).
Bridge positions count the residues as written; N and C are the ends. Primed or numbered codes have the meaning given here. * marks the point of attachment. DOTA‑PEG4 = alpha-(1,4,7,10-tetraazacyclododecan-1,4,7,10-tetraacetate)-4(ethylene glycol); DOTA = O=C(O)CN1CCN(CC(=O)O)CCN(CC(=O)*)CCN(CC(=O)O)CC1; PEG4′ = polyethylene glycol (PEG4) linker

How the values were obtained:
[1] = Plasma pharmacokinetic analysis in Sprague Dawley rats; type: in vivo; conditions: rat, bolus intravenous injection, read-out: PK DATA (t½ - min)
Experimental: Nine blood collection timepoints are taken from 2-24 hours, processed to plasma with K2EDTA, and are frozen for subsequent bioanalysis. Plasma miniprotein concentrations are measured by LC-MS/MS. Plasma FITC-sinistrin is measured fluorometrically. […] Finally, non-compartmental analysis is performed to estimate plasma pharmacokinetic parameters.
Exemplary pK data for exemplary Nectin-4 miniprotein monomers were tested in vivo (t1/2 mins), showing an average pK for these exemplary compounds.

[2] = test system: HT1376 urothelial cancer cells; test: In vitro cell cytotoxicity assay of actinium-225 radioconjugates (CellTiter-Glo); type: cell-based; conditions: compound radiolabeled with 225Ac, 24 hours treatment, 4-5 days regrowth, cell viability
Experimental: Cytotoxicity to actinium-225 radioconjugates was assessed in HT1376 urothelial cancer cells. Cells were seeded in 96-well plates at densities of 250 to 1000 cells per well two days prior to treatment. On the day of treatment actinium-225 radioconjugates were diluted in culture medium to concentrations ranging from 0.0001 to 100 uCi/mL and treatment solutions were incubated with cells for 24 hours. At the end of the treatment period, the treatment solution was removed, and fresh culture medium was replenished for the regrowth period of the assay that lasted 4-5 days. At the end of the regrowth period the culture medium was removed and viability was assessed by CellTiter-Glo (Promega, Waltham MA) luminescent assay and the plates were read on a Perkin Elmer Enspire multimode plate reader. Data were normalized to treatment controls and plotted as non-linear sigmoidal dose response curves to determine the effective concentration for 50% reduction in cell viability.

[3] = Thermal stability at 75° C. in 0.9% saline by HPLC; type: physicochemical; conditions: 1 mg/mL, 0.9% Saline solution, 60 minutes, FIG. 7
Experimental: The thermal stability of an exemplary compound, C215, was analyzed at a concentration of 1 mg/mL at 75° C. in 0.9% Saline solution. A heating plate was set to 75° C. and the sample was heated for a period of one hour. The vial was shaken prior to collecting […] at 5, 10, 15, 30 and 60 minute time intervals. The % parent remaining was analyzed by HPLC using the following system and method: Analytical Agilent 1100 HPLC system using a 4.6×250 mm, 300 Angstrom, BEH300, […], Xbridge C18 column at […]. The solvent system consisted of A=Water+0.1% TFA, B=Acetonitrile+0.1% TFA. The gradient consisted of 5% to 70% B over 15 minutes, then the column was washed and equilibrated to initial conditions.

[4] = previously published, Challita-Eid et al Cancer Res (2016); cited from earlier work
[5] = target: T1, Nectin-4 on HT1376 urothelial cancer cells (UniProt Q96NY8 32-510); test: saturation radioligand binding (Lu-177) on HT1376 cells, 4 C, gamma counting
T1 construct: whole, on cells; also called HT1376 cells
T1 sequence (looked up): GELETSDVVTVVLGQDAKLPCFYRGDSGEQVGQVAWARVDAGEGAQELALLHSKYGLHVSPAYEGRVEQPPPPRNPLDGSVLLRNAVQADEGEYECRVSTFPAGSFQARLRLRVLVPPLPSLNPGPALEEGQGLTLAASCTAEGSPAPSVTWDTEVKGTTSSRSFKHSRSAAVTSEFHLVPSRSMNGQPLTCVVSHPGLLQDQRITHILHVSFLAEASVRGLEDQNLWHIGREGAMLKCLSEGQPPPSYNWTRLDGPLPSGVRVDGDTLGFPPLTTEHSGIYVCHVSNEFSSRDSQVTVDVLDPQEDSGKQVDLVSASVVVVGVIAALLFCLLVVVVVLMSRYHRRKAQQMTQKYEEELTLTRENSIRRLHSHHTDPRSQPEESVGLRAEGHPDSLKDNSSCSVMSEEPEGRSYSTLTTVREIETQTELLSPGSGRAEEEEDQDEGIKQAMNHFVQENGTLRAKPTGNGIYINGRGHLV
Experimental: Radioligand binding was performed in HT1376 urothelial cancer cells by method of saturation. Cells were seeded at 20,000 cells per well in 96-well format 48 hours prior to assay. Lutetium-177-labeled radioconjugates of C215 and C117 were incubated with cells at 4 deg C. for 1 h at various increasing concentrations of radioligand. At the end of incubation cells were washed three times with PBS and radioactivity was quantified by gamma counting as shown in Table 3.

Molecule: CC[C@H](C)[C@@H]1NC(=O)[C@H](CC(=O)O)NC(=O)CNC(=O)CNC(=O)[C@H](CCCNC(=N)N)NC(=O)[C@H](CC(C)C)NC(=O)[C@H](CCCNC(=N)N)NC(=O)[C@H](CCCCN)NC(=O)[C@H](CC(C)C)NC(=O)[C@H](C)NC(=O)[C@H]([C@@H](C)O)NC(=O)[C@H](Cc2ccccc2)NC(=O)[C@H](Cc2ccccc2)NC(=O)[C@H](CCC(=O)O)NC(=O)[C@H](CCC(=O)O)NC(=O)[C@H](CC(=O)O)NC(=O)[C@H](Cc2ccc(O)cc2)NC(=O)[C@H](CCC(=O)O)NC(=O)[C@@H](NC(=O)CCOCCOCCOCCOCCNC(=O)CN2CCN(CC(=O)O)CCN(CC(=O)O)CCN(CC(=O)O)CC2)CSSC[C@@H]2NC(=O)[C@H](CC(C)C)NC(=O)[C@H](CCCCNC(C)=O)NC(=O)[C@@H]3CCCN3C(=O)[C@H](C(C)C)NC(=O)[C@H](CCCCNC(C)=O)NC(=O)[C@H](CCCCNC(C)=O)NC(=O)[C@H](Cc3ccccc3)NC(=O)[C@H](CCCCNC(C)=O)NC(=O)[C@H](CCCCNC(C)=O)NC(=O)[C@H](CCCCNC(C)=O)NC(=O)[C@H]([C@@H](C)CC)NC(=O)[C@H](Cc3ccc(O)cc3)NC(=O)[C@H](Cc3ccc(O)cc3)NC(=O)[C@H](CSSC[C@@H](C(N)=O)NC(=O)CNC(=O)[C@H](CC(C)C)NC(=O)[C@H](CCCCN)NC(=O)[C@H](CC(=O)O)NC(=O)[C@H](CC(C)C)NC(=O)[C@H]([C@@H](C)CC)NC(=O)[C@H](CCC(=O)O)NC(=O)[C@H](CCC(=O)O)NC(=O)[C@H]([C@@H](C)CC)NC2=O)NC1=O [Compound C216]
- half-life [1]: 31.4 min

Molecule: CC[C@H](C)[C@@H]1NC(=O)[C@H](CC(=O)O)NC(=O)CNC(=O)CNC(=O)[C@H](CCCNC(N)=O)NC(=O)[C@H](CC(C)C)NC(=O)[C@H](CCCNC(N)=O)NC(=O)[C@H](CCCCNC(C)=O)NC(=O)[C@H](CC(C)C)NC(=O)[C@H](C)NC(=O)[C@H]([C@@H](C)O)NC(=O)[C@H](Cc2ccccc2)NC(=O)[C@H](Cc2ccccc2)NC(=O)[C@H](CCC(=O)O)NC(=O)[C@H](CCC(=O)O)NC(=O)[C@H](CC(=O)O)NC(=O)[C@H](Cc2ccc(O)cc2)NC(=O)[C@H](CCC(=O)O)NC(=O)[C@@H](NC(=O)CCOCCOCCOCCOCCNC(=O)CN2CCN(CC(=O)O)CCN(CC(=O)O)CCN(CC(=O)O)CC2)CSSC[C@@H]2NC(=O)[C@H](CC(C)C)NC(=O)[C@H](CCCCN)NC(=O)[C@@H]3CCCN3C(=O)[C@H](C(C)C)NC(=O)[C@H](CCCCN)NC(=O)[C@H](CCCCN)NC(=O)[C@H](Cc3ccccc3)NC(=O)[C@H](CCCCN)NC(=O)[C@H](CCCCN)NC(=O)[C@H](CCCCN)NC(=O)[C@H]([C@@H](C)CC)NC(=O)[C@H](Cc3ccc(O)cc3)NC(=O)[C@H](Cc3ccc(O)cc3)NC(=O)[C@H](CSSC[C@@H](C(N)=O)NC(=O)CNC(=O)[C@H](CC(C)C)NC(=O)[C@H](CCCCNC(C)=O)NC(=O)[C@H](CC(=O)O)NC(=O)[C@H](CC(C)C)NC(=O)[C@H]([C@@H](C)CC)NC(=O)[C@H](CCC(=O)O)NC(=O)[C@H](CCC(=O)O)NC(=O)[C@H]([C@@H](C)CC)NC2=O)NC1=O [Compound C217]
- half-life [1]: 31.4 min

Molecule: C214 ({DOTA‑PEG4}-CEYDEEFFTALKRLRGGDICYYIKKKFDYLPKLCIEEILDNLGC-NH2; disulfide 1-34, 20-44) [Compound C214]
- EC50 (microcurie/milliliter) for Ac-225 radioconjugates [2]: 0.014 microcurie/milliliter

Molecule: C215 (CEYDEEFFTALKRLRGGDICYYIKKKFKKVPKLCIEEILDKLGC) [Compound C215]
- EC50 (microcurie/milliliter) for Ac-225 radioconjugates [2]: 0.086 microcurie/milliliter
- Thermal stability (% parent remaining) [3]: remain stable

Molecule: enfortumab vedotin
- PK DATA (t½ - min) [4]: 2,476.8 min
- PK DATA (t½) [4]: 41.3 h

B1: Lutetium-177-labeled radioconjugate of C117 (designed binder)
chain: {DOTA-PEG4′}-CEYDEEFFTALKRLRGGDICYYIQAKFQYLPKLCIEEILDNLGCS-OH
modifications: disulfide 1-34, 20-44; also: DOTA labeled with lutetium-177
- Kd [5]: 0.89 nM
